Patent US11319328B2 (priority 2017, dated 2022)

Key:
Assay in all cases: cells
Type in all cases: cell-based
[1] = tested on: breast cancer MCF7 cell line; conditions: cultured 48 h, MTT
Protocol: (§1) A cell strain: Hepatoma HepG2, cervical cancer Hela, lung cancer A549, breast cancer MCF7 cell line and human normal liver cell HL7702 were purchased from Wuhan Boster Biological Technology Co., Ltd.;
(§2) HepG2, Hela, A549, MCF 7 cells in logarithmic growth phase and human normal hepatocytes HL7702 were centrifuged at 1500 rpm for 5 min, and the supernatant was discarded; the cells were digested with a suitable amount of trypsin, and then suspended with a suitable amount of culture medium (HepG2, Hela and HL7702 cells were suspended with penicillin-streptomycin RPMI1640 culture medium containing 10% calf serum, A549 and MCF 7 cells with penicillin-streptomycin high glucose DMEM culture medium containing 10% calf serum, to adjust the cell concentration to 1.5×10^4 cells/well, the cells were seeded in 96-well plates, and the following experimental groups were set:
(§3) 0.10 mL of the cell suspension was added to each well, and incubated at 37° C., 5% CO2 and saturated humidity for 12 h, and the culture medium was discarded when the cell density was nearly 70%. […] 100 μl of 5 mg/ml MTT was added per well, standing for 4 h at 37° C. 100 μl of DMSO was added to each well, followed by shaking on a shaker for 10 min at 37° C., the absorbance (OD) was measured at 492 nm, and the MTT ratio was calculated as the OD value of drug group/OD value of negative control group.

lung cancer A549 = conditions: cultured 48 h, MTT
Protocol: as §1, §2, §3

Hepatoma HepG2 = conditions: cultured 48 h, MTT
Protocol: as §1, §2, §3

cervical cancer Hela = conditions: cultured 48 h, MTT
Protocol: as §1, §2, §3

[2] = tested on: human normal liver cell HL7702; conditions: human normal hepatocytes HL7702, cultured 48 h, MTT
Protocol: as §1, §2, §3

| Compound | IC50 [1] | IC50 (lung cancer A549) | IC50 (Hepatoma HepG2) | IC50 (cervical cancer Hela) | IC50 [2] |
| --- | --- | --- | --- | --- | --- |
| 4β-NH-(2-(5-amino-2-methylphenyl)-4-(3-pyridyl) pyrimidine)-4′-demethylepipodophyllotoxin [Compound 38] | 14.5 ± 3.8 µM | 15.5 ± 2 µM | 29.5 ± 3.2 µM | 35.1 ± 5.9 µM | > 100 µM |
| 4β-NH-(6-indazolamine)-4′-demethylepipodophyllotoxin [Compound 32] | 21.4 ± 5.9 µM | 25.6 ± 3.7 µM | 19.4 ± 1.5 µM | 6.4 ± 1.8 µM | 17.7 ± 2.2 µM |
| 4β-NH-(7-indazolamine)-4′-demethylepipodophyllotoxin [Compound 33] | 16.4 ± 0.9 µM | 24.5 ± 5 µM | 22.5 ± 2.6 µM | 34 ± 1.1 µM | 29.8 ± 1.9 µM |
| COc1cc(C2c3cc4c(cc3C(Nc3cccc5c3C(=O)c3ccccc3C5=O)C3COC(=O)C23)OCO4)cc(OC)c1OC (stereo not drawn) [Compound 1, 4β-NH-(1-aminoanthraquinone) podophyllotoxin] | 0.7 ± 0.01 µM | 0.2 ± 0.01 µM | 0.9 ± 0.05 µM | 0.7 ± 0.1 µM | > 100 µM |
| COc1cc(C2c3cc4c(cc3C(Nc3ccc5c(c3)C(=O)c3ccccc3C5=O)C3COC(=O)C23)OCO4)cc(OC)c1OC (stereo not drawn) [Compound 2, 4β-NH-(2-aminoanthraquinone) podophyllotoxin] | 2.9 ± 0.1 µM | 2.9 ± 0.4 µM | 9.6 ± 0.8 µM | 2.5 ± 0.3 µM | > 100 µM |
| COc1cc([C@@H]2c3cc4c(cc3[C@@H](Nc3ccc5c(c3N)C(=O)c3ccccc3C5=O)[C@@H]3COC(=O)[C@H]23)OCO4)cc(OC)c1OC [Compound 3, 4β-NH-(1,2-diaminoanthraquinone) podophyllotoxin] | 17.5 ± 2.1 µM | > 100 µM | 52 ± 8.4 µM | 24.6 ± 3.2 µM | > 100 µM |
| COc1cc(C2c3cc4c(cc3C(Nc3cccc5c3C(=O)c3cccc(N)c3C5=O)C3COC(=O)C23)OCO4)cc(OC)c1OC (stereo not drawn) [Compound 4, 4β-NH-(1,5-diaminoanthraquinone) podophyllotoxin] | 3.4 ± 0.6 µM | 2.2 ± 0.3 µM | 4.7 ± 0.4 µM | 4.6 ± 0.2 µM | > 100 µM |
| COc1cc([C@@H]2c3cc4c(cc3[C@@H](Nc3ccc5c(c3)C(=O)c3ccc(N)cc3C5=O)[C@@H]3COC(=O)[C@H]23)OCO4)cc(OC)c1OC [Compound 5, 4β-NH-(2,6-diaminoanthraquinone) podophyllotoxin] | > 100 µM | > 100 µM | 9.1 ± 1.2 µM | 6.5 ± 0.5 µM | > 100 µM |
| COc1cc([C@@H]2c3cc4c(cc3[C@@H](Nc3nc(N)nc5ccccc35)[C@@H]3COC(=O)[C@H]23)OCO4)cc(OC)c1OC [Compound 6, 4β-NH-(2,4-quinazolinediamine) podophyllotoxin] | 24.5 ± 4.4 µM | 14.3 ± 2.3 µM | > 100 µM | 19.2 ± 1.9 µM | 13.8 ± 1.9 µM |
| COc1cc(C2c3cc4c(cc3C(Nc3ccc5ncccc5c3)C3COC(=O)C23)OCO4)cc(OC)c1OC (stereo not drawn) [Compound 7, 4β-NH-(6-aminoquinoline) podophyllotoxin] | 0.6 ± 0.03 µM | 0.3 ± 0.04 µM | 0.8 ± 0.01 µM | 0.7 ± 0.03 µM | > 100 µM |
| COc1cc([C@@H]2c3cc4c(cc3[C@@H](Nc3cccc5ncccc35)[C@@H]3COC(=O)[C@H]23)OCO4)cc(OC)c1OC [Compound 8, 4β-NH-(5-aminoquinoline) podophyllotoxin] | > 100 µM | > 100 µM | > 100 µM | > 100 µM | > 100 µM |
| COc1cc(C2c3cc4c(cc3C(Nc3cccc5cnccc35)C3COC(=O)C23)OCO4)cc(OC)c1OC (stereo not drawn) [Compound 9, 4β-NH-(5-aminoisoquinoline) podophyllotoxin] | 1.4 ± 0.3 µM | 2.3 ± 0.1 µM | 4.1 ± 1.1 µM | 3.1 ± 0.2 µM | 16.3 ± 2.8 µM |
| COc1cc([C@@H]2c3cc4c(cc3[C@@H](Nc3cccc5cccnc35)[C@@H]3COC(=O)[C@H]23)OCO4)cc(OC)c1OC [Compound 10, 4β-NH-(8-aminoquinoline) podophyllotoxin] | 1 ± 0.1 µM | 1.2 ± 0.2 µM | 4.6 ± 0.4 µM | 2.7 ± 0.3 µM | 37 ± 4.8 µM |
| COc1cc([C@@H]2c3cc4c(cc3[C@@H](Nc3cccc5ccc(C)nc35)[C@@H]3COC(=O)[C@H]23)OCO4)cc(OC)c1OC [Compound 11, 4β-NH-(8-aminoquinaldine) podophyllotoxin] | 1 ± 0.2 µM | 3 ± 0.4 µM | 1.6 ± 0.1 µM | 1.5 ± 0.1 µM | > 100 µM |
| COc1cc(C2c3cc4c(cc3C(Nc3ccc5[nH]ncc5c3)C3COC(=O)C23)OCO4)cc(OC)c1OC (stereo not drawn) [Compound 12, 4β-NH-(5-indazolamine) podophyllotoxin] | 0.4 ± 0.03 µM | 0.2 ± 0.02 µM | 0.3 ± 0.02 µM | 0.5 ± 0.01 µM | 50 µM |
| COc1cc(C2c3cc4c(cc3C(Nc3ccc5cn[nH]c5c3)C3COC(=O)C23)OCO4)cc(OC)c1OC (stereo not drawn) [Compound 13, 4β-NH-(6-indazolamine) podophyllotoxin] | 1.3 ± 0.2 µM | 2.4 ± 0.2 µM | 1.8 ± 0.2 µM | 2.1 ± 0.3 µM | 33.6 ± 1.5 µM |
| COc1cc([C@@H]2c3cc4c(cc3[C@@H](Nc3cccc5cn[nH]c35)[C@@H]3COC(=O)[C@H]23)OCO4)cc(OC)c1OC [Compound 14, 4β-NH-(7-indazolamine) podophyllotoxin] | 0.4 ± 0.01 µM | 0.5 ± 0.01 µM | 0.9 ± 0.1 µM | 0.9 ± 0.01 µM | 43.3 ± 2.8 µM |
| COc1cc(C2c3cc4c(cc3C(Nc3ccc5[nH]ccc5c3)C3COC(=O)C23)OCO4)cc(OC)c1OC (stereo not drawn) [Compound 15, 4β-NH-(5-aminoindole) podophyllotoxin] | 4.8 ± 0.9 µM | 2.2 ± 0.9 µM | 2.5 ± 0.6 µM | 3.8 ± 0.2 µM | 30.5 ± 2.7 µM |
| COc1cc(C2c3cc4c(cc3C(Nc3ccc5cc[nH]c5c3)C3COC(=O)C23)OCO4)cc(OC)c1OC (stereo not drawn) [Compound 16, 4β-NH-(6-aminoindole) podophyllotoxin] | 0.3 ± 0.01 µM | 0.2 ± 0.02 µM | 0.6 ± 0.01 µM | 0.4 ± 0.01 µM | 140 µM |
| COc1cc([C@@H]2c3cc4c(cc3[C@@H](Nc3cccc5cc[nH]c35)[C@@H]3COC(=O)[C@H]23)OCO4)cc(OC)c1OC [Compound 17, 4β-NH-(7-aminoindole) podophyllotoxin] | 0.8 ± 0.1 µM | 1 ± 0.1 µM | 1.9 ± 0.2 µM | 0.8 ± 0.1 µM | 38.4 ± 2.6 µM |
| COc1cc(C2c3cc4c(cc3C(Nc3ccccc3-c3nc5ccccc5[nH]3)C3COC(=O)C23)OCO4)cc(OC)c1OC (stereo not drawn) [Compound 18, 4β-NH-(2-(2-aminophenyl)benzimidazole)-podophyllotoxin] | 1.7 ± 0.2 µM | 2.8 ± 0.1 µM | 3.6 ± 0.3 µM | 4.8 ± 0.2 µM | > 100 µM |
| COc1cc([C@@H]2c3cc4c(cc3[C@@H](Nc3ccc(C)c(-c5nccc(-c6cccnc6)n5)c3)[C@@H]3COC(=O)[C@H]23)OCO4)cc(OC)c1OC [Compound 19, 4β-NH-(2-(5-amino-2-methylphenyl)-4-(3-pyridyl)pyrimidine)-podophyllotoxin] | 9.5 ± 0.8 µM | 7.7 ± 0.6 µM | 6.6 ± 0.1 µM | 4.8 ± 0.4 µM | > 100 µM |
| COc1cc(C2c3cc4c(cc3C(Nc3cccc5c3C(=O)c3ccccc3C5=O)C3COC(=O)C23)OCO4)cc(OC)c1O (stereo not drawn) [Compound 20, 4β-NH-(1-aminoanthraquinone)-4′-demethylepipodophyllotoxin] | 2.3 ± 0.1 µM | 1.8 ± 0.2 µM | 8.8 ± 2.1 µM | 8.5 ± 2.1 µM | 53.7 ± 5.3 µM |
| COc1cc([C@@H]2c3cc4c(cc3[C@@H](Nc3ccc5c(c3)C(=O)c3ccccc3C5=O)[C@@H]3COC(=O)[C@H]23)OCO4)cc(OC)c1O [Compound 21, 4β-NH-(2-aminoanthraquinone)-4′-demethylepipodophyllotoxin] | 4 ± 0.5 µM | > 100 µM | 1.1 ± 0.4 µM | 1.9 ± 0.3 µM | 55.4 ± 6.2 µM |
| COc1cc(C2c3cc4c(cc3C(Nc3ccc5c(c3N)C(=O)c3ccccc3C5=O)C3COC(=O)C23)OCO4)cc(OC)c1O (stereo not drawn) [Compound 22, 4β-NH-(1,2-diaminoanthraquinone)-4′-demethylepipodophyllotoxin] | 18.1 ± 2.8 µM | > 100 µM | > 100 µM | > 100 µM | > 100 µM |
| COc1cc([C@@H]2c3cc4c(cc3[C@@H](Nc3cccc5c3C(=O)c3cccc(N)c3C5=O)[C@@H]3COC(=O)[C@H]23)OCO4)cc(OC)c1O [Compound 23, 4β-NH-(1,5-diaminoanthraquinone)-4′-demethylepipodophyllotoxin] | > 100 µM | > 100 µM | > 100 µM | > 100 µM | > 100 µM |
| COc1cc(C2c3cc4c(cc3C(Nc3ccc5c(c3)C(=O)c3ccc(N)cc3C5=O)C3COC(=O)C23)OCO4)cc(OC)c1O (stereo not drawn) [Compound 24, 4β-NH-(2,6-diaminoanthraquinone)-4′-demethylepipodophyllotoxin] | 4.2 ± 1.1 µM | > 100 µM | > 100 µM | > 100 µM | > 100 µM |
